# Earlier results in US9056899B2 (priority 2008, dated 2015).
# Read-outs that look alike come from different tables or passages of the source.
# Assays:
# Conditions in all cases: cited from earlier work
# [1] = system: BW25113 and gene knockouts
# BW25113 gene knockouts = system: BW25113 gene knockouts
# [2] = system: BW25113 and gene knockouts; remark: listed apart in the source
# [3] = system: BW25113 and gene knockouts from KEIO collection
# [4] = system: BW25113 and gene knockouts from KEIO collection; remark: listed apart in the source
# [5] = system: BW25113 and gene knockouts; remark: listed apart in the source
# [6] = system: BW25113 and gene knockouts; remark: listed apart in the source
# [7] = system: BW25113 and gene knockouts; remark: listed apart in the source
compound,measurement,setting,value
Cc1cc(NS(=O)(=O)c2ccc(N)cc2)no1 [Sulfamethaxazone],MIC Plating,[1]; BW25113 starting strain,1000 µg/mL
same,MIC Plating,[1]; JW5115 knockout,400 µg/mL
same,MIC Plating,[1]; JW5474 knockout,500 µg/mL
same,MIC Plating,[1]; dapF knockout,300 µg/mL
same,MIC Plating,[1]; dcd knockout,>550 µg/mL
same,MIC Plating,[1]; degP knockout,500 µg/mL
same,MIC Plating,[1]; deoT knockout,550 µg/mL
same,MIC Plating,[1]; dksA knockout,550 µg/mL
same,MIC Plating,[1]; dnaK knockout,300 µg/mL
same,MIC Plating,[1]; envC knockout,400 µg/mL
same,MIC Plating,[1]; fis knockout,600 µg/mL
same,MIC Plating,[1]; gpmM knockout,400 µg/mL
same,MIC Plating,[1]; hns knockout,550 µg/mL
same,MIC Plating,[1]; lpdA knockout,400 µg/mL
same,MIC Plating,[1]; lptB knockout,500 µg/mL
same,MIC Plating,[1]; nudB knockout,350 µg/mL
same,MIC Plating,[1]; pgmB knockout,500 µg/mL
same,MIC Plating,[1]; pstA knockout,550 µg/mL
same,MIC Plating,[1]; pstS knockout,550 µg/mL
same,MIC Plating,[1]; qmcA knockout,550 µg/mL
same,MIC Plating,[1]; recA knockout,400 µg/mL
same,MIC Plating,[1]; recB knockout,350 µg/mL
same,MIC Plating,[1]; recC knockout,350 µg/mL
same,MIC Plating,[1]; recG knockout,500 µg/mL
same,MIC Plating,[1]; resA knockout,>550 µg/mL
same,MIC Plating,[1]; rfaE knockout,550 µg/mL
same,MIC Plating,[1]; rimK knockout,350 µg/mL
same,MIC Plating,[1]; rplA knockout,500 µg/mL
same,MIC Plating,[1]; rpmF knockout,550 µg/mL
same,MIC Plating,[1]; rpsU knockout,500 µg/mL
same,MIC Plating,[1]; tolC knockout,400 µg/mL
same,MIC Plating,[1]; xapR knockout,>550 µg/mL
same,MIC Plating,[1]; ybeY knockout,500 µg/mL
same,MIC Plating,[1]; ybgF knockout,>550 µg/mL
same,MIC Plating,[1]; yciM knockout,>550 µg/mL
same,MIC Plating,[1]; yciS knockout,550 µg/mL
same,MIC Plating,[1]; ydjI knockout,>550 µg/mL
same,MIC Plating,[1]; yfgL knockout,400 µg/mL
same,MIC Plating,[1]; ygcO knockout,550 µg/mL
same,MIC Plating,[1]; yiiU knockout,550 µg/mL
same,MIC Plating,[1]; yjjY knockout,>550 µg/mL
same,MIC Plating,[1]; ylcG knockout,500 µg/mL
same,MIC Plating,[1]; ymfI knockout,500 µg/mL
same,MIC Plating,[1]; yneE knockout,550 µg/mL
CN[C@H](CC(C)C)C(=O)N[C@H]1C(=O)N[C@@H](CC(N)=O)C(=O)N[C@H]2C(=O)N[C@H]3C(=O)N[C@H](C(=O)N[C@H](C(=O)O)c4cc(O)cc(O)c4-c4cc3ccc4O)[C@H](O)c3ccc(c(Cl)c3)Oc3cc2cc(c3O[C@@H]2O[C@H](CO)[C@@H](O)[C@H](O)[C@H]2O[C@H]2C[C@](C)(N)[C@H](O)[C@H](C)O2)Oc2ccc(cc2Cl)[C@H]1O [Vancomycin],MIC E test,BW25113 gene knockouts; lptB knockout,2.0 µg/mL
same,MIC E test,BW25113 gene knockouts; pal knockout,96 µg/mL
same,MIC E test,BW25113 gene knockouts; smpA knockout,70 µg/mL
same,MIC E test,BW25113 gene knockouts; surA knockout,4 µg/mL
same,MIC Plating,[2]; BW25113 starting strain,500 µg/mL
same,MIC Plating,[2]; dksA knockout,125 µg/mL
same,MIC Plating,[2]; elaD knockout,150 µg/mL
same,MIC Plating,[2]; envC knockout,150 µg/mL
same,MIC Plating,[2]; envZ knockout,150 µg/mL
same,MIC Plating,[2]; fepC knockout,150 µg/mL
same,MIC Plating,[2]; hns knockout,150 µg/mL
same,MIC Plating,[2]; hscB knockout,150 µg/mL
same,MIC Plating,[2]; lptB knockout,150 µg/mL
same,MIC Plating,[2]; msbB knockout,150 µg/mL
same,MIC Plating,[2]; oxyR knockout,150 µg/mL
same,MIC Plating,[2]; pal knockout,100 µg/mL
same,MIC Plating,[2]; pgmB knockout,100 µg/mL
same,MIC Plating,[2]; proW knockout,150 µg/mL
same,MIC Plating,[2]; rimK knockout,150 µg/mL
same,MIC Plating,[2]; rpmJ knockout,150 µg/mL
same,MIC Plating,[2]; rrmJ knockout,150 µg/mL
same,MIC Plating,[2]; skp knockout,75 µg/mL
same,MIC Plating,[2]; smpA knockout,100 µg/mL
same,MIC Plating,[2]; surA knockout,8 µg/mL
same,MIC Plating,[2]; tonB knockout,125 µg/mL
same,MIC Plating,[2]; tusC knockout,150 µg/mL
same,MIC Plating,[2]; tusD knockout,150 µg/mL
same,MIC Plating,[2]; xapR knockout,100 µg/mL
same,MIC Plating,[2]; ybgF knockout,100 µg/mL
same,MIC Plating,[2]; ycbR knockout,150 µg/mL
same,MIC Plating,[2]; yciM knockout,100 µg/mL
same,MIC Plating,[2]; ydfP knockout,150 µg/mL
same,MIC Plating,[2]; ydjI knockout,100 µg/mL
same,MIC Plating,[2]; yfgC knockout,150 µg/mL
same,MIC Plating,[2]; yfgL knockout,150 µg/mL
same,MIC Plating,[2]; yhdP knockout,125 µg/mL
O=C(O)c1cn(C2CC2)c2cc(N3CCNCC3)c(F)cc2c1=O [Ciprofloxacin],MIC Plating,[3]; BW25113 starting strain,0.02 µg/mL
same,MIC Plating,[3]; acrA knockout,0.0075 µg/mL
same,MIC Plating,[3]; acrB knockout,0.008 µg/mL
same,MIC Plating,[3]; deoT knockout,0.0075 µg/mL
same,MIC Plating,[3]; dksA knockout,0.01 µg/mL
same,MIC Plating,[3]; fis knockout,>0.00875 µg/mL
same,MIC Plating,[3]; hfq knockout,0.0075 µg/mL
same,MIC Plating,[3]; hrpA knockout,0.00875 µg/mL
same,MIC Plating,[3]; ihfA knockout,0.0075 µg/mL
same,MIC Plating,[3]; pgmB knockout,0.01 µg/mL
same,MIC Plating,[3]; qmcA knockout,>0.00875 µg/mL
same,MIC Plating,[3]; recA knockout,>0.00875 µg/mL
same,MIC Plating,[3]; recB knockout,0.0075 µg/mL
same,MIC Plating,[3]; recC knockout,>0.00875 µg/mL
same,MIC Plating,[3]; recG knockout,0.006 µg/mL
same,MIC Plating,[3]; recN knockout,0.01 µg/mL
same,MIC Plating,[3]; rimK knockout,>0.00875 µg/mL
same,MIC Plating,[3]; rseA knockout,>0.00875 µg/mL
same,MIC Plating,[3]; ruvA knockout,0.01 µg/mL
same,MIC Plating,[3]; ruvC knockout,>0.00875 µg/mL
same,MIC Plating,[3]; tolC knockout,0.005 µg/mL
same,MIC Plating,[3]; uvrD knockout,0.006 µg/mL
same,MIC Plating,[3]; xseA knockout,0.006 µg/mL
same,MIC Plating,[3]; xseB knockout,0.008 µg/mL
same,MIC Plating,[3]; ybgC knockout,0.0075 µg/mL
same,MIC Plating,[3]; ybgF knockout,0.0075 µg/mL
same,MIC Plating,[3]; ychJ knockout,0.0075 µg/mL
same,MIC Plating,[3]; yciM knockout,0.0075 µg/mL
same,MIC Plating,[3]; ygcO knockout,0.0075 µg/mL
same,MIC Plating,[3]; yjjY knockout,0.00875 µg/mL
same,MIC E-Test,[4]; BW25113 starting strain,0.016 µg/mL
same,MIC E-Test,[4]; fis knockout,0.006 µg/mL
same,MIC E-Test,[4]; recA knockout,0.002 µg/mL
same,MIC E-Test,[4]; recC knockout,0.008 µg/mL
same,MIC E-Test,[4]; recG knockout,0.006 µg/mL
same,MIC E-Test,[4]; ruvC knockout,0.008 µg/mL
same,MIC E-Test,[4]; tolC knockout,0.004 µg/mL
same,MIC E-Test,[4]; uvrD knockout,0.005 µg/mL
same,MIC E-Test,[4]; xseA knockout,0.006 µg/mL
CC1(C)S[C@@H]2[C@H](NC(=O)[C@H](N)c3ccccc3)C(=O)N2[C@H]1C(=O)O [Ampicillin],MIC E test,[5]; BW25113 starting strain,5.0 µg/mL
same,MIC E test,[5],1.5 µg/mL
same,MIC E test,[5]; dacA knockout,1.5 µg/mL
same,MIC E test,[5]; dapF knockout,2.0 µg/mL
same,MIC E test,[5]; pal knockout,2.0 µg/mL
same,MIC E test,[5]; rplA knockout,2.0 µg/mL
same,MIC E test,[5]; tatC knockout,3.0 µg/mL
same,MIC E test,[5]; tolC knockout,1.0 µg/mL
same,MIC Plating,[6]; BW25113 starting strain,6.0 µg/mL
same,MIC Plating,[6]; JW5115 knockout,2.0 µg/mL
same,MIC Plating,[6]; acrA knockout,1.5 µg/mL
same,MIC Plating,[6]; acrB knockout,2.0 µg/mL
same,MIC Plating,[6]; atpA knockout,2.5 µg/mL
same,MIC Plating,[6],1.5 µg/mL
same,MIC Plating,[6]; dacA knockout,1.5 µg/mL
same,MIC Plating,[6]; dapF knockout,1.0 µg/mL
same,MIC Plating,[6]; dcd knockout,2.5 µg/mL
same,MIC Plating,[6]; ddlB knockout,1.0 µg/mL
same,MIC Plating,[6]; dedD knockout,2.0 µg/mL
same,MIC Plating,[6]; deoT knockout,2.0 µg/mL
same,MIC Plating,[6]; dksA knockout,2.0 µg/mL
same,MIC Plating,[6]; emtA knockout,2.0 µg/mL
same,MIC Plating,[6]; envC knockout,1.5 µg/mL
same,MIC Plating,[6]; fkpB knockout,2.5 µg/mL
same,MIC Plating,[6]; gpmM knockout,1.5 µg/mL
same,MIC Plating,[6]; hscA knockout,2.0 µg/mL
same,MIC Plating,[6]; hscB knockout,2.5 µg/mL
same,MIC Plating,[6]; lptB knockout,2.0 µg/mL
same,MIC Plating,[6]; mrcB knockout,2.0 µg/mL
same,MIC Plating,[6]; pal knockout,1.5 µg/mL
same,MIC Plating,[6]; pgmB knockout,1.5 µg/mL
same,MIC Plating,[6]; phoP knockout,2.0 µg/mL
same,MIC Plating,[6]; qmcA knockout,2.5 µg/mL
same,MIC Plating,[6]; rimK knockout,2.0 µg/mL
same,MIC Plating,[6]; rplA knockout,2.0 µg/mL
same,MIC Plating,[6]; rpmF knockout,1.5 µg/mL
same,MIC Plating,[6]; rpsF knockout,2.0 µg/mL
same,MIC Plating,[6]; rrmJ knockout,1.5 µg/mL
same,MIC Plating,[6]; skp knockout,2.0 µg/mL
same,MIC Plating,[6]; sufI knockout,2.0 µg/mL
same,MIC Plating,[6]; surA knockout,2.0 µg/mL
same,MIC Plating,[6]; tatC knockout,2.0 µg/mL
same,MIC Plating,[6]; tolC knockout,2.0 µg/mL
same,MIC Plating,[6]; tolR knockout,2.0 µg/mL
same,MIC Plating,[6]; ubiG knockout,2.0 µg/mL
same,MIC Plating,[6]; xapR knockout,1.5 µg/mL
same,MIC Plating,[6]; ybeD knockout,2.0 µg/mL
same,MIC Plating,[6]; ybeY knockout,2.0 µg/mL
same,MIC Plating,[6]; ybgF knockout,1.5 µg/mL
same,MIC Plating,[6]; ybhT knockout,2.0 µg/mL
same,MIC Plating,[6]; yciM knockout,1.5 µg/mL
same,MIC Plating,[6]; yfgC knockout,1.5 µg/mL
same,MIC Plating,[6]; yfgL knockout,2.0 µg/mL
same,MIC Plating,[6]; ygcO knockout,2.0 µg/mL
same,MIC Plating,[6]; yjjY knockout,1.5 µg/mL
gentamicin,MIC Plating,[7]; BW25113 starting strain,0.8 µg/mL
same,MIC Plating,[7]; JW5360 knockout,>0.8 µg/mL
same,MIC Plating,[7]; dapF knockout,0.7 µg/mL
same,MIC Plating,[7]; envC knockout,>0.5 µg/mL
same,MIC Plating,[7]; gpmM knockout,0.7 µg/mL
same,MIC Plating,[7]; hflK knockout,0.5 µg/mL
same,MIC Plating,[7]; rfaC knockout,0.7 µg/mL
same,MIC Plating,[7]; rffA knockout,0.7 µg/mL
same,MIC Plating,[7]; rnt knockout,0.7 µg/mL
same,MIC Plating,[7]; rplI knockout,0.7 µg/mL
same,MIC Plating,[7]; rpmE knockout,0.6 µg/mL
same,MIC Plating,[7]; rpoN knockout,0.5 µg/mL
same,MIC Plating,[7]; sapC knockout,0.5 µg/mL
same,MIC Plating,[7]; secG knockout,0.5 µg/mL
same,MIC Plating,[7]; tatC knockout,0.5 µg/mL
same,MIC Plating,[7]; tolC knockout,0.5 µg/mL
same,MIC Plating,[7]; tusC knockout,0.5 µg/mL
same,MIC Plating,[7]; tusD knockout,0.5 µg/mL
same,MIC Plating,[7]; xapR knockout,>0.5 µg/mL
same,MIC Plating,[7]; yciM knockout,>0.7 µg/mL
same,MIC Plating,[7]; yfgC knockout,>0.5 µg/mL
same,MIC Plating,[7]; yidD knockout,0.5 µg/mL
